According to patent US6987121B2, “Compositions and methods for hepatoprotection and treatment of cholestasis” (SmithKline Beecham Corporation, priority 2002, dated 2006):

Assays:
[1] = system: bile duct-ligated (BDL) rats; test: Histological examination of liver samples from BDL rats; type: in vivo, Sprague-Dawley rats; settings: GW4064 100 mg/kg daily i.p. for 7 days
Method: (§1) Male Sprague-Dawley rats (approximately 300 grams) were obtained from Charles River Laboratories Inc (Raleigh, N.C.) and were maintained on a 12 hour light/12 hour dark light cycle. Animals were anesthetized by the administration of 2-3% isoflurane. Laparotomy was performed under sterile technique and the liver and duodenum gently displaced to reveal the common bile duct. The bile duct was separated from the surrounding tissue and two ligatures of 4-0 Ethilon were placed around it. The bile duct was clamped between the two ligatures with an aneurysm clamp and the ligatures drawn tight. An additional ligature was placed proximal to the first (near the liver). The clamp was removed and the bile duct severed between the ligatures. The muscle wall was closed with 4-0 Vicryl and the skin closed with staples. Animals were allowed to recover for 24 hours prior to administration of drug (GW4064, 100 mg/kg daily in corn oil/10% DMSO) or vehicle alone (in corn oil/10% DMSO) by a daily intra-peritoneal injection for 7 days prior to sacrifice. Animals were allowed food and water ad libitum throughout the study period. Animals were anesthetized with 2-3% isoflurane and sacrificed by cardiac puncture.
A section of the liver was removed and placed into 10% neutral buffered formalin. […]

[2] = system: bile duct-ligated (BDL) rats; test: Serum markers of liver function in bile duct-ligated (BDL) rats; type: in vivo, Sprague-Dawley rats; settings: GW4064 100 mg/kg daily i.p. for 7 days
Method: as §1
Serum levels of alanine aminotransferase (ALT), asparate aminotransferase (AST), total bilirubin (TBILI), and γ-glutamyl transferase (GGT) were determined using an Instrumentation Laboratory Ilab600 clinical chemistry analyzer. Serum bile acids (BILEA) were determined using a commercially available assay (Sigma Chemical Co., St Louis, Mo.).

CC(C)c1onc(-c2c(Cl)cccc2Cl)c1COc1ccc(/C=C/c2cccc(C(=O)O)c2)c(Cl)c1 [GW4064]
Liver histology: bile duct proliferation [1]: only bile duct proliferation | Liver histology: necrosis ([1]; vehicle-treated showed large areas of necrosis): no necrosis | Liver function as defined by the panel of enzymes examined [2]: pronounced improvement in liver function | Serum level of ALT, as % of that in BDL rats receiving vehicle alone ([2]; corn oil/10% DMSO): 23% | Serum level of AST, as % of that in BDL rats receiving vehicle alone ([2]; corn oil/10% DMSO): 27% | Serum level of GGT, as % of that in BDL rats receiving vehicle alone ([2]; corn oil/10% DMSO): 34% | Serum level of TBILI, as % of that in BDL rats receiving vehicle alone ([2]; corn oil/10% DMSO): 49%
